The values below come from patent publication US20030162759A1, “Aldosterone blocker therapy to prevent or treat inflammation-related disorders” (priority 2000, published 2003).

Format in all cases: in vivo, rat
The subject of one experiment is aldosterone infused rats. Description: Assay B aldosterone infusion model: heart histology (vascular inflammatory lesions, myocardial injury). The conditions noted are these: saline-drinking, uni-nephrectomized rats, 4 weeks, eplerenone 100 mpk p.o. The method, then:
Assay B: In vivo Aldosterone Infusion Model Male Sprague Dawley rats (n=39; BW=250 g) […] Uni-nephrectomy performed during implantation of mini-pumps 2. Aldosterone (0.75 mg/hr, sc via aizet minipump) 2. […] 1. […] Sacrifice after 4 weeks. Hearts were harvested and divided by half through a transverse section at the mid-ventricles: The upper half was stored into formalin. The bottom part was snap-frozen in liquid nitrogen for biochemical analysis. Hearts were stained with hematoxylin&eosin and the collagen specific dye picro-sirius red and were analyzed for determination of interstitial collagen volume fraction and morphologic abnormalities (i.e. necrosis, vascular injury).

For the next experiment, the system named is interstitial collagen. Description: Assay C: interstitial collagen volume fraction (Picrosirius Red image analysis). Conditions: for Collagen Volume Fraction (%), Mean: group mean; for Interstitial Collagen Volume Fraction: Table 9.14, 7-day protocol; for ICVF (interstitial collagen volume fraction): eplerenone 100 mg/kg/day. The method, then: The procedure of Assay B was expanded upon in a further study. […] Myocardial tissue from animals in each treatment group was examined after 7, 14, or 30 days of treatment. […] Lesions were preceded by the expression and progressive upregulation of proinflammatory molecules. […] Prior to surgery the animals were individually weighed and placed in one of the following groups: […] Potassium chloride supplementation was added to the saline solution in order to prevent the potential hypokalemia associated with aldosterone excess. […] Louis, Mo.) was inserted subcutaneously at the nape of the neck. Aldosterone was administered at a dose of […]. […] Animals were sacrificed from each group (n=8-13) after 7, 14, or 30 days of treatment. The equatorial regions of the heart were routinely processed into paraffin with an automated tissue processor (Hypercenter XP, Shandon/Lipshaw Inc., Pittsburgh, Pa.) and embedded into fresh paraffin apical side down (Shandon Embedding Center, Shandon/Lipshaw Inc.). […] Ten m sections were stained with the collagen specific stain, Picrosirius Red F3BA (Saturated Picric Acid (Sigma Chemical, St. […] Waterbury, Conn.) (6). Mounted tissues were hydrated with water. […] Slides were coverslipped with #1 cover glass using Permount Histological Mounting Media (Fisher Scientific). Two slides mounted with 5 m sections were cut for each animal. One slide was processed for H&E staining and one for Periodic Acid Schiff (PAS) staining. The H&E and PAS were used for pathological scoring of the hearts. Picrosirius Red F3BA stained slides were used to quantify interstitial collagen with a Videometric 150 Image Analysis System (Oncor Inc., Gaitherburg, Md.). […] Garden City, N.Y.) attached to a Nikon Optiphot microscope (Nikon Inc.). A Toshiba 3 CCD Color Video Camera (Model#[…] Corp. Japan) relayed the images in RGB format from the microscope to a 386 computer with a […] video board. The […] video board/[…] software application (Oncor Inc.) converted RGB images to HIS (Hue, Intensity, Saturation) format for display and analysis on a Sony Trinitron Color Video Monitor (Model#PVM-1342Q, Sony Corp, Tokyo, Japan) at a magnification of 305×. […] The […] application then measured only pixels which fell into thresholding limits. The system was calibrated with a micrometer scale (EM Sciences, FT. Washington, Pa. 19034), which allowed data to be expressed in mm^2 or m^2.

In experiment [1] the test system is aldosterone + salt treated rats. Description: Assay C further aldosterone infusion study: radiotelemetrized systolic blood pressure. From the text:
Assay C: Further in vivo Aldosterone Infusion Study The procedure of Assay B was expanded upon in a further study. […] Myocardial tissue from animals in each treatment group was examined after 7, 14, or 30 days of treatment. […] Lesions were preceded by the expression and progressive upregulation of proinflammatory molecules. […] Male Sprague-Dawley rats, weighing 230 to 250 g, (Harlan Sprague-Dawley Industries, Indianapolis, Ind.) were housed in a room 12-hours light/12-hours dark daily cycle at an ambient temperature of 22±1° C. (n=96). Animals were allowed one week to adjust after arrival and had free access to TEKLAD 22/5 rodent diet (Harlan TEKLAD, Madison, Wis.) and tap water until the initiation of the experiment. Prior to surgery the animals were individually weighed and placed in one of the following groups: […] Potassium chloride supplementation was added to the saline solution in order to prevent the potential hypokalemia associated with aldosterone excess. […] Louis, Mo.) was inserted subcutaneously at the nape of the neck. Aldosterone was administered at a dose of […]. […] Animals were sacrificed from each group (n=8-13) after 7, 14, or 30 days of treatment. Animals to be sacrificed after 7 or 14 days of treatment were uninephrectomized and implanted with an Alzet minipump. Animals treated for 30 days were uninephrectomized, fitted for Alzet minipumps, and implanted with radio telemetry units (model#TA11PA-C40, Data Sciences Inc., St. Paul, Minn.) according to the following procedure. […] The surgery site was clipped, scrubbed with nolvasan, and sprayed with betadine. A rostral-caudal incision was made through the skin from the base of the rib cage to the pubic region using a #11 scalpel blade. A second incision was made through the muscles of the abdominal wall to expose the peritoneal cavity. […] Organs were carefully displaced with tissue retractors in order to expose the abdominal aorta. A 1.5 cm segment just rostral to the bifurcation of the abdominal aorta into the iliac arteries was cleared of excessive connective tissue and 4-0 silk was used to make an anchor adjacent to the aorta. A microvascular clip was then placed at both ends of the cleaned region to stop excessive blood flow. Using a bent, 21 gauge needle, the abdominal aorta was penetrated. The cannula of the radio telemetry unit was inserted and stabilized in the aorta using the 4-0 silk anchor. Organs were repositioned and the telemetry unit was placed over the organs. Using a non-interrupted suture pattern with 4-0 silk, the abdominal wall was closed, and the skin was subsequently closed using a 4-0 silk in an interrupted suture pattern. […] Post-operative care included monitoring the animals on a heating pad during recovery from anesthesia until sternal recumbency was reestablished. Radiotelemetrized arterial blood pressure was calculated with the […] Version 1.1-Gold software (Data Sciences International, St. Paul, Minn.). Data points were collected over a 24 hour period with the collection rate set for a 10 second reading every 5 min for each animal. The 24 hour period used was from 6:00 a.m. to 6:00 a.m.

Values joined by “and” are separate entries in the source; they are usually repeats but may differ in a detail not shown here. Equal entries are not always repeated. “Also recorded” adds a separate entry of the source.

With `COC(=O)[C@@H]1CC2=CC(=O)CC[C@]2(C)[C@@]23O[C@@H]2C[C@@]2(C)[C@@H](CC[C@@]24CCC(=O)O4)[C@H]13` [eplerenone, Pregn-4-ene-7,21-dicarboxylic acid, 9,11-epoxy-17-hydroxy-3-oxo-, γ-lactone, methyl ester, (7α, 11α, 17β) -], the “Vascular inflammatory changes / myocardial injury” value with aldosterone infused rats is recorded as “completely prevented the vascular inflammatory changes; also recorded: prevention by eplerenone of myocardial injury”. The results for the “Collagen Volume Fraction (%), Mean” value with interstitial collagen (14 days of treatment) and in the experiment with interstitial collagen (30 days of treatment) were 4.5% and 6.2%, respectively. Also, the Systolic Blood Pressure entry in experiment [1] (uninephrectomized Sprague-Dawley rats, 1% NaCl-0.3% KCl, aldosterone infusion, eplerenone 100 mg/kg/day, up to 30 days) is listed as “significantly reduced”; in experiment [1] (uninephrectomized Sprague-Dawley rats, 1% NaCl-0.3% KCl, aldosterone infusion, eplerenone 100 mg/kg/day, up to 30 days, listed as eplerenone+aldosterone+salt), “significantly reduced at days 8-30”.
`C[C@]12CCC(=O)C=C1CC[C@@H]1[C@@H]2[C@@H](O)C[C@]2(C=O)[C@@H](C(=O)CO)CC[C@@H]12` [aldosterone]: in the experiment on aldosterone infused rats, the “Vascular inflammatory changes / myocardial injury” value was “severe vascular inflammatory lesions”. In addition, the “Interstitial Collagen Volume Fraction” value in the experiment with interstitial collagen (group Mean) was 5.6%; with interstitial collagen (individual rats, listed as Aldosterone + salt), 3.2% and 6.5% (2×) and 6.1% and 6.9% and 4.4% and 3.1%. Further, the figures for the “Collagen Volume Fraction (%), Mean” value with interstitial collagen (14 days of treatment) and in the experiment with interstitial collagen (30 days of treatment) were 5.1% and 7.9%, respectively. In addition, the “ICVF (interstitial collagen volume fraction)” value with interstitial collagen (mean ± SEM after 7 days of treatment) was determined as 5.6 ± 0.6%; in the experiment on interstitial collagen (mean ± SEM after 14 days of treatment), 5.1 ± 0.5%; in the experiment on interstitial collagen (mean ± SEM after 30 days of treatment), 7.9 ± 1.0%. The “Systolic Blood Pressure” value in experiment [1] (Day 3, mean ± SEM of values every 5 min over 24-hour period) amounted to 132 ± 6 mmHg; in experiment [1] (Day 5, mean ± SEM of values every 5 min over 24-hour period), 137 ± 4 mmHg; in experiment [1] (Day 6, mean ± SEM of values every 5 min over 24-hour period), 148 ± 5 mmHg; in experiment [1] (Day 7, mean ± SEM of values every 5 min over 24-hour period), 155 ± 5 mmHg; in experiment [1] (Day 8, mean ± SEM of values every 5 min over 24-hour period), 156 ± 4 mmHg; in experiment [1] (Day 9, mean ± SEM of values every 5 min over 24-hour period), 164 ± 5 mmHg. In addition, the “Systolic Blood Pressure” value in experiment [1] (Day 11, mean ± SEM of values every 5 min over 24-hour period) was 171 ± 6 mmHg; in experiment [1] (Day 12, mean ± SEM of values every 5 min over 24-hour period), 178 ± 6 mmHg; in experiment [1] (Day 13, mean ± SEM of values every 5 min over 24-hour period), 182 ± 6 mmHg; in experiment [1] (Day 15, mean ± SEM of values every 5 min over 24-hour period), 181 ± 5 mmHg; in experiment [1] (Day 16, mean ± SEM of values every 5 min over 24-hour period), 187 ± 6 mmHg; in experiment [1] (Day 17, mean ± SEM of values every 5 min over 24-hour period), 195 ± 7 mmHg. For the same molecule, the “Systolic Blood Pressure” value in experiment [1] (Day 18, mean ± SEM of values every 5 min over 24-hour period) was found to be 196 ± 6 mmHg; in experiment [1] (Day 19, mean ± SEM of values every 5 min over 24-hour period) it was 200 ± 6 mmHg; in experiment [1] (Day 20, mean ± SEM of values every 5 min over 24-hour period), 203 ± 5 mmHg; in experiment [1] (Day 21, mean ± SEM of values every 5 min over 24-hour period) it was 208 ± 4 mmHg; in experiment [1] (Day 22, mean ± SEM of values every 5 min over 24-hour period), 209 ± 4 mmHg; in experiment [1] (Day 23, mean ± SEM of values every 5 min over 24-hour period), 208 ± 4 mmHg. In addition, the “Systolic Blood Pressure” value is on record as 210 ± 3 mmHg in experiment [1] (Day 24, mean ± SEM of values every 5 min over 24-hour period); 210 ± 4 mmHg in experiment [1] (Day 25, mean ± SEM of values every 5 min over 24-hour period); 210 ± 3 mmHg in experiment [1] (Day 26, mean ± SEM of values every 5 min over 24-hour period); “progressive increase in blood pressure with time” in experiment [1] (uninephrectomized Sprague-Dawley rats, 1% NaCl-0.3% KCl, aldosterone infusion, eplerenone 100 mg/kg/day, up to 30 days, listed as Aldosterone+salt); “induced severe hypertension” in experiment [1] (uninephrectomized Sprague-Dawley rats, 1% NaCl-0.3% KCl, aldosterone infusion, eplerenone 100 mg/kg/day, up to 30 days, listed as Aldosterone/salt).
